Among the data in US20230117034A1, “PYRAZOLOTRIAZINES” (Bayer Aktiengesellschaft, priority 2019, published 2023) are IC50 and DC50 values, retold here.

pIC50: −log10 of the molar value. Some results are limits rather than exact numbers.

In experiment [1] the test system is CAL-120, human breast adenocarcinoma cells. Description: Proliferation assay CAL-120 (crystal violet, 4 days). It is filed as cell-based. As to conditions: Homo sapiens, CAL-120, 96 h, CAL-120 cells, median, read-out: Prolif-CAL-120, IC50-[mol/l] (median). The gist of the method:
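IC50 from a 4-parameter fit of crystal violet absorbance (595 nm), scaled between a day-0 plate (0%) and untreated wells (100%). Cells grown in 10% FCS medium were exposed to test substances at 0.01-10 µmol/L for 4 days, 0.1% DMSO final.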

The test system of experiment [2] is BRCA1 mRNA expression in CAL-120 cells. Nature of the experiment: qRT-PCR assay: BRCA1 mRNA expression in CAL-120. Type of experiment: cell-based. The conditions noted are these: Homo sapiens; Inhibition of BRCA1 mRNA expression in CAL-120 cells; median; read-out: RTqPCR-CAL-120, IC50, BRCA1 (median). The procedure, abridged:
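Human breast cancer cells, 200,000/well, were treated with test agents for 24 h without interruption after a 24 h settling period. Gene expression came from qPCR on cDNA made from 600 ng RNA, relative to GAPDH.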
A general note: Quantitative PCR measures a nucleic acid by following its amplification.

A further experiment has as its target T1, CDK9/CycT1 (Homo sapiens, UniProt P50750).
T1 construct: Recombinant full-length His-tagged human CDK9 and CycT1; purchased Life Technologies PV4131; host or cells: insect cells
Nature of the experiment: CDK9/CycT1 high ATP kinase assay (TR-FRET, 2 mM ATP). Type of experiment: biochemical. As to conditions: 2 mM ATP (high ATP); median; read-out: CDK9/CyclinT1, 2 mM ATP (high ATP), IC50 (median). The gist of the method:
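Full-length His-tagged human CDK9/CycT1 (insect cell, ~0.5 μg/mL) preincubated 15 min at 22 °C with compound in Tris pH 8.0, MgCl2, DTT buffer before reaction with biotinylated peptide substrate at high ATP (2 mM).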

Experiment [3] concerns the target T2, CYCLIN K (nuclear staining in CAL-120 cells) (Homo sapiens, UniProt O75909).
T2 construct: endogenous in cells; host or cells: CAL-120 human breast cancer cells (DSMZ ACC 459)
Description: CYCLIN K nuclear protein level: immunofluorescence high content analysis (CAL-120). Type of experiment: cell-based. The conditions noted are these: 24 h, 50% reduction of nuclear CCNK staining intensity, median, read-out: CYCLIN K degradation IF, DC50-[mol/l] (median). The gist of the method: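 Readout is automated confocal image analysis of nuclear cyclin K immunofluorescence (Hoechst nuclei) after PFA fixation. Cells were CAL-120, exposed to compound dose-response 24 h at 37 °C; values are DC50 for halving nuclear CCNK signal relative to DMSO and control wells.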

T2 sequence (O75909 whole entry): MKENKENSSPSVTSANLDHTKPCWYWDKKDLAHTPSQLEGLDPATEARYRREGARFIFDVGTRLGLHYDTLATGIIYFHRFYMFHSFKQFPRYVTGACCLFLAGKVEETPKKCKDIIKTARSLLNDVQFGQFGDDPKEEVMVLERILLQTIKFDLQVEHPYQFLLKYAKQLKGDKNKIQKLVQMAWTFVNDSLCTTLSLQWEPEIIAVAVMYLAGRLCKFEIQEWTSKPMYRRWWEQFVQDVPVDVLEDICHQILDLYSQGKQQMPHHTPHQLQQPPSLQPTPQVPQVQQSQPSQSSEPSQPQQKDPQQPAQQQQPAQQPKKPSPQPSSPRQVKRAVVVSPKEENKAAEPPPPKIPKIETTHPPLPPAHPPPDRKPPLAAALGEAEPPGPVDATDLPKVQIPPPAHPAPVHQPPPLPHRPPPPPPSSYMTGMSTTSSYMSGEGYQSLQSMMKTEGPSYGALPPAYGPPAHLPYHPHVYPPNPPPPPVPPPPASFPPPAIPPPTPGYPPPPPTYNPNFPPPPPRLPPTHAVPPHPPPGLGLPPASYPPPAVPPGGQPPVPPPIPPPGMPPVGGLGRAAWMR
T2 sequence (Q9NYV4 whole entry partner): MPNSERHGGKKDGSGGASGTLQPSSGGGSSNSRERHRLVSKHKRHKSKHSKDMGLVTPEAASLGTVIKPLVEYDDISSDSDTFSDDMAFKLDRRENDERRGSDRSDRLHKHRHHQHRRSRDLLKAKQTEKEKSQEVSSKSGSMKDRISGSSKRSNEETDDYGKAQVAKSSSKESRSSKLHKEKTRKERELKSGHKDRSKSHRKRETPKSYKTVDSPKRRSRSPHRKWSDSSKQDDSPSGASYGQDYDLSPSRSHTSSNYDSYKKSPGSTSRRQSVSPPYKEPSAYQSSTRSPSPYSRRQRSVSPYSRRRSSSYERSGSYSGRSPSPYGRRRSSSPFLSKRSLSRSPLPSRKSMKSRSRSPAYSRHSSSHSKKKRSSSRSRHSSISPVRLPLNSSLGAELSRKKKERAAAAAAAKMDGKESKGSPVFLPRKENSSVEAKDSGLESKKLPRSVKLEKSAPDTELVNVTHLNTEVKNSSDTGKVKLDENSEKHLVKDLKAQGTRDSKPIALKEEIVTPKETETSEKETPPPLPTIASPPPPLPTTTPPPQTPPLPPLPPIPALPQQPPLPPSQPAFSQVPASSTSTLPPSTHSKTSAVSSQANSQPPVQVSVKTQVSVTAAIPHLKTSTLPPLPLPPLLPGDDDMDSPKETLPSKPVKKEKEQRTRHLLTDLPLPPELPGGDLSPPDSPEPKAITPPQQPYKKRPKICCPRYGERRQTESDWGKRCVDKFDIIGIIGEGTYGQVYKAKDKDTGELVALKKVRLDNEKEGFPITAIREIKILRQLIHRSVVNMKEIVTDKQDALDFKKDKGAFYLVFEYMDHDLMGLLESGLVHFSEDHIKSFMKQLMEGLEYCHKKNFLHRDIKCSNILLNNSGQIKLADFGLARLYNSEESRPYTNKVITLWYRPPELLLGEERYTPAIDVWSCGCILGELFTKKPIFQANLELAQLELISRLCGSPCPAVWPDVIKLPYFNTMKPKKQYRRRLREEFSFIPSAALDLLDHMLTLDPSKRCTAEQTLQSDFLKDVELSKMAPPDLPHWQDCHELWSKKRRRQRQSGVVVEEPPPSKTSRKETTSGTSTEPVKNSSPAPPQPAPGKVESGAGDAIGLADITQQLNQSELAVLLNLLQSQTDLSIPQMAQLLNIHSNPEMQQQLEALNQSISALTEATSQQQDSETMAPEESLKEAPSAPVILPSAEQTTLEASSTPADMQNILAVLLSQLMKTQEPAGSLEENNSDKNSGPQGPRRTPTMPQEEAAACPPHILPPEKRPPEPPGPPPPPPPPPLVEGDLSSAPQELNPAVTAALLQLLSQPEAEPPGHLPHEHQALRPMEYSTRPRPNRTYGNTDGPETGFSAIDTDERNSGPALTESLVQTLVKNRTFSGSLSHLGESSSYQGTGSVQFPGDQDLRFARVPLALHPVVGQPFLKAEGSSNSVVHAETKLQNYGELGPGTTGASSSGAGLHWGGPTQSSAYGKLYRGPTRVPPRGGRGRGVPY
T1 sequence (P50750 whole entry): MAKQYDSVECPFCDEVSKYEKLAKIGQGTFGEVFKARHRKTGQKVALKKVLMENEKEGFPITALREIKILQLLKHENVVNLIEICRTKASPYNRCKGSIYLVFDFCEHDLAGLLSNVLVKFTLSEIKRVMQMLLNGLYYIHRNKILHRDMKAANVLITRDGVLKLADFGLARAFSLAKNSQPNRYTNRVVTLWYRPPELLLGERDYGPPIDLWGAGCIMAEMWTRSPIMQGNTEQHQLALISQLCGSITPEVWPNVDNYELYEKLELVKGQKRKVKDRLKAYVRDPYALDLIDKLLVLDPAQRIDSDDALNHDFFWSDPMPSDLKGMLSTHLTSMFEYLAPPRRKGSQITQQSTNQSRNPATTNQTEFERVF
T1 sequence (O60563 whole entry partner): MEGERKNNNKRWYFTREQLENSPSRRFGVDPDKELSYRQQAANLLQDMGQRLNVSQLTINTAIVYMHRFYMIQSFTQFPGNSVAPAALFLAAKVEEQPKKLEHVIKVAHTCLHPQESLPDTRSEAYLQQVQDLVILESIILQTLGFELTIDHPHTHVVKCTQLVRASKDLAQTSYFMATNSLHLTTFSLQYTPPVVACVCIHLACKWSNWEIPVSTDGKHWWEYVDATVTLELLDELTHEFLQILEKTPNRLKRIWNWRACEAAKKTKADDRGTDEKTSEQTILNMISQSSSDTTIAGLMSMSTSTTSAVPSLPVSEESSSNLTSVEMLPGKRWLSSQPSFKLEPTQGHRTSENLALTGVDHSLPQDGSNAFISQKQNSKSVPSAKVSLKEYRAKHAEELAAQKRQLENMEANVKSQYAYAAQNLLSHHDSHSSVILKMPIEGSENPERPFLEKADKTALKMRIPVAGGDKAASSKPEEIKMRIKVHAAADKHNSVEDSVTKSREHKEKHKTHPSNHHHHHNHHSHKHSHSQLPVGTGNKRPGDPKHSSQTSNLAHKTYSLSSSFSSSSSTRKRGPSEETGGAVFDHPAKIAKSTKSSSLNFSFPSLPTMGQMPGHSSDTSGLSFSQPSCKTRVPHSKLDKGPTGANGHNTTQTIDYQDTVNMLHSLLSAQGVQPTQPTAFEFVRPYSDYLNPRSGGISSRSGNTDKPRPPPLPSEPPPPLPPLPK

On to `Cc1ccnc2[nH]c(CNc3nc(N4CCOCC4)nc4c(C(C)C)cnn34)nc12` [Example 28, N-[(7-methyl-3H-imidazo[4,5-b]pyridin-2-yl)methyl]-2-(morpholin-4-yl)-8-(propan-2-yl)pyrazolo[1,5-a][1,3,5]triazin-4-amine], for which the results for the pIC50 (in experiment [1]; in experiment [2]; at CDK9/CycT1) were 7.41, 7.51 and less than 4.70, respectively. Moreover, the DC50 in experiment [3] is 0.000888 µM.

As to `Fc1ccc(-c2nnc(CNc3nc(N4CCOCC4)nc4c(Br)cnn34)[nH]2)cc1` [Example 29, 8-bromo-N-{[5-(4-fluorophenyl)-4H-1,2,4-triazol-3-yl]methyl}-2-(morpholin-4-yl)pyrazolo[1,5-a][1,3,5]triazin-4-amine], the pIC50 in experiment [1] was 6.77; in experiment [2], 7.08; on CDK9/CycT1, 5.62. Further, the DC50 in experiment [3] is 0.00336 µM.
